ChEMBL document CHEMBL4507280 (2021)

Tests used:
[1] = biological target: Serine/threonine-protein kinase 38 (Homo sapiens) (UniProt Q15208); conditions: Compound concentration 1000.0 nM
[2] = biological target: Serine/threonine-protein kinase ULK3 (Homo sapiens) (UniProt Q6PHR2); conditions: Compound concentration 1000.0 nM
[3] = biological target: Serine/threonine-protein kinase SIK3 (Homo sapiens) (UniProt Q9Y2K2); conditions: Compound concentration 1000.0 nM
[4] = biological target: Ribosomal protein S6 kinase alpha-5 (Homo sapiens) (UniProt O75582); conditions: Compound concentration 1000.0 nM
[5] = biological target: Ephrin type-B receptor 2 (Homo sapiens) (UniProt P29323); conditions: Compound concentration 1000.0 nM
[6] = biological target: Ephrin type-A receptor 5 (Homo sapiens) (UniProt P54756); conditions: Compound concentration 1000.0 nM
[7] = biological target: Beta-adrenergic receptor kinase 1 (Homo sapiens) (UniProt P25098); conditions: Compound concentration 1000.0 nM
Chain of Beta-adrenergic receptor kinase 1 (Homo sapiens) (P25098 whole entry): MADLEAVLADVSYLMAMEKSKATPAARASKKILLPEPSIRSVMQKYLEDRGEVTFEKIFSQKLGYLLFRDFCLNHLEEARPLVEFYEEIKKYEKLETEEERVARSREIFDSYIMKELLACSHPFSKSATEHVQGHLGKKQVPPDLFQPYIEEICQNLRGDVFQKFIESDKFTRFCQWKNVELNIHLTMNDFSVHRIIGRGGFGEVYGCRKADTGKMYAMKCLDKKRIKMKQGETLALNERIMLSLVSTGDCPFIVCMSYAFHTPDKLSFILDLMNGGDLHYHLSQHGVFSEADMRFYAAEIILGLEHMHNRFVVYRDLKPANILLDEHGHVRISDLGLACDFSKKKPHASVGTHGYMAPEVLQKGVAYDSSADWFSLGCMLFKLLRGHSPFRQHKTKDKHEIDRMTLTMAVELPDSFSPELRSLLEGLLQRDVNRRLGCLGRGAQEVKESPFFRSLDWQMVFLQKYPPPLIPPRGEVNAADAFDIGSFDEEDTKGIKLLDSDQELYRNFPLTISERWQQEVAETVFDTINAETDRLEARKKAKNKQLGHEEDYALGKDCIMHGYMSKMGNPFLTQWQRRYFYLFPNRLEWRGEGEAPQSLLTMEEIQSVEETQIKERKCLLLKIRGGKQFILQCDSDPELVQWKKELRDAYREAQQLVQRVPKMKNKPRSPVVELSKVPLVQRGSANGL

[8] = biological target: Beta-3 adrenergic receptor (Homo sapiens) (UniProt P13945); conditions: Compound concentration 10.0 uM
[9] = biological target: Protein-tyrosine kinase 6 (Homo sapiens) (UniProt Q13882); conditions: Compound concentration 1000.0 nM
[10] = biological target: Serine/threonine-protein kinase Nek9 (Homo sapiens) (UniProt Q8TD19); conditions: Compound concentration 1000.0 nM
[11] = biological target: Rho-associated protein kinase 2 (Homo sapiens) (UniProt O75116); conditions: Compound concentration 1000.0 nM
Chain of Rho-associated protein kinase 2 (Homo sapiens) (O75116 whole entry, looked up): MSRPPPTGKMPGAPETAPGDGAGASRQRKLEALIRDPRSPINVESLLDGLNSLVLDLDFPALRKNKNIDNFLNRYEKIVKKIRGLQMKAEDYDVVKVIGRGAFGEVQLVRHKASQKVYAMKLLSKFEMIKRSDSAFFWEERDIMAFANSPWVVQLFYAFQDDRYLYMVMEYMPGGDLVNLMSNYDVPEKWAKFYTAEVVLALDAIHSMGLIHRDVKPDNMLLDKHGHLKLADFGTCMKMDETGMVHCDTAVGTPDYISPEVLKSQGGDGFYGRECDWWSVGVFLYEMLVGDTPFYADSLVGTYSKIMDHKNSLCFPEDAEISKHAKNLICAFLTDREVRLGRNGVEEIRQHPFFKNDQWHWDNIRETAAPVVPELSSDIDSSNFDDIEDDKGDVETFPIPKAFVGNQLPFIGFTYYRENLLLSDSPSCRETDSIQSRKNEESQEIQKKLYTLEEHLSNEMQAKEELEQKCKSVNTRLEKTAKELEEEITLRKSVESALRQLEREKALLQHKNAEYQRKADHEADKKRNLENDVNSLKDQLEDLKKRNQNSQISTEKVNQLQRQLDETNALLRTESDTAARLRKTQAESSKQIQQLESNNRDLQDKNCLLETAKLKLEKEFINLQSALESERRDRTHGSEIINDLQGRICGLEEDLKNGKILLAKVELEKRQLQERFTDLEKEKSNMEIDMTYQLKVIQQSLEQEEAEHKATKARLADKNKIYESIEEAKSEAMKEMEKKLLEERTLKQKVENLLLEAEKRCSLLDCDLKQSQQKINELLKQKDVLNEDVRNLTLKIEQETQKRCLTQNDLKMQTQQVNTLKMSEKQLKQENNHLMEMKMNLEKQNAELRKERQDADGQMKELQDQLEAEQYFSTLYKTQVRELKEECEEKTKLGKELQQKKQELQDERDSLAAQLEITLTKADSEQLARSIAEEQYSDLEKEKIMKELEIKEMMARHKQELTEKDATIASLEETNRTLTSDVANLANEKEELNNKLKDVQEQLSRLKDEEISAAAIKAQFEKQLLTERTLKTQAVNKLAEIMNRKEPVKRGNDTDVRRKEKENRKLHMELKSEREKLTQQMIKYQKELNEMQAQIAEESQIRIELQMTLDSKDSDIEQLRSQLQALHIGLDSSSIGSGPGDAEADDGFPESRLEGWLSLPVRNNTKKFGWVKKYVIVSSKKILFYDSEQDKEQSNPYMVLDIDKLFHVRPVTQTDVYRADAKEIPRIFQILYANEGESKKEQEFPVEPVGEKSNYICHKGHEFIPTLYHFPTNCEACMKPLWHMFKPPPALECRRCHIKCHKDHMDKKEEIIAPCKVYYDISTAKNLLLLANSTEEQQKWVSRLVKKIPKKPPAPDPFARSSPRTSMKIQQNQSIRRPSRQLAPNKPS

[12] = biological target: Beta-2 adrenergic receptor (Homo sapiens) (UniProt P07550); conditions: Compound concentration 10.0 uM
Chain of Beta-2 adrenergic receptor (Homo sapiens) (P07550 whole entry, looked up, canonical isoform): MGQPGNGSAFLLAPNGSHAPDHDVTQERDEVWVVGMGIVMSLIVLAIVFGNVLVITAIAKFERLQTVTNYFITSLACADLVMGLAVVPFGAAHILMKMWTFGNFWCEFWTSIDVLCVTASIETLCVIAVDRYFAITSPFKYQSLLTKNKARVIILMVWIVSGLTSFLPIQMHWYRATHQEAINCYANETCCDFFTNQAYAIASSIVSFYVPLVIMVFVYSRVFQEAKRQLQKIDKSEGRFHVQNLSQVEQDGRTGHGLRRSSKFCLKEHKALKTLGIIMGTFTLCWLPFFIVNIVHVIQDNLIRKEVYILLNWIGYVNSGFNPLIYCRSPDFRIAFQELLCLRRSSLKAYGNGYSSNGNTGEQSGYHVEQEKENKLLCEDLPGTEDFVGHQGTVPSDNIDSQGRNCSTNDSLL

[13] = tested on: Phosphatidylinositol 4,5-bisphosphate 3-kinase catalytic subunit alpha isoform (Homo sapiens), P42336 [C420R]; conditions: Compound concentration 1000.0 nM
[14] = biological target: Mitogen-activated protein kinase kinase kinase kinase 1 (Homo sapiens) (UniProt Q92918); conditions: Compound concentration 1000.0 nM
[15] = biological target: Ephrin type-B receptor 1 (Homo sapiens) (UniProt P54762); conditions: Compound concentration 1000.0 nM
[16] = biological target: Receptor-interacting serine/threonine-protein kinase 2 (Homo sapiens) (UniProt O43353); conditions: Compound concentration 1000.0 nM
[17] = biological target: Mitogen-activated protein kinase kinase kinase kinase 3 (Homo sapiens) (UniProt Q8IVH8); conditions: Compound concentration 1000.0 nM
[18] = biological target: Serine/threonine-protein kinase LATS1 (Homo sapiens) (UniProt O95835); conditions: Compound concentration 1000.0 nM
[19] = biological target: Serine/threonine-protein kinase tousled-like 1 (Homo sapiens) (UniProt Q9UKI8); conditions: Compound concentration 1000.0 nM
[20] = biological target: Ephrin type-B receptor 6 (Homo sapiens) (UniProt O15197); conditions: Compound concentration 1000.0 nM
[21] = biological target: Proto-oncogene tyrosine-protein kinase Src (Homo sapiens) (UniProt P12931); conditions: Compound concentration 1000.0 nM
[22] = biological target: Interleukin-1 receptor-associated kinase 4 (Homo sapiens) (UniProt Q9NWZ3); conditions: Compound concentration 1000.0 nM
[23] = biological target: Tyrosine-protein kinase HCK (Homo sapiens) (UniProt P08631); conditions: Compound concentration 1000.0 nM
[24] = tested on: Phosphatidylinositol 4,5-bisphosphate 3-kinase catalytic subunit alpha isoform (Homo sapiens), P42336 [I800L]; conditions: Compound concentration 1000.0 nM
[25] = biological target: Serine/threonine-protein kinase MARK1 (Homo sapiens) (UniProt Q9P0L2); conditions: Compound concentration 1000.0 nM
[26] = tested on: Epidermal growth factor receptor (Homo sapiens), P00533 [L861Q]; conditions: Compound concentration 1000.0 nM
[27] = biological target: Death-associated protein kinase 3 (Homo sapiens) (UniProt O43293); conditions: Compound concentration 1000.0 nM
[28] = biological target: Microtubule-associated serine/threonine-protein kinase 1 (Homo sapiens) (UniProt Q9Y2H9); conditions: Compound concentration 1000.0 nM
[29] = biological target: Serine/threonine-protein kinase WNK3 (Homo sapiens) (UniProt Q9BYP7); conditions: Compound concentration 1000.0 nM
[30] = biological target: Histamine H1 receptor (Homo sapiens) (UniProt P35367); conditions: Compound concentration 10.0 uM
[31] = biological target: Phosphatidylinositol 4,5-bisphosphate 3-kinase catalytic subunit delta isoform (Homo sapiens) (UniProt O00329); conditions: Compound concentration 1000.0 nM
Chain of Phosphatidylinositol 4,5-bisphosphate 3-kinase catalytic subunit delta isoform (Homo sapiens) (O00329 whole entry, canonical isoform): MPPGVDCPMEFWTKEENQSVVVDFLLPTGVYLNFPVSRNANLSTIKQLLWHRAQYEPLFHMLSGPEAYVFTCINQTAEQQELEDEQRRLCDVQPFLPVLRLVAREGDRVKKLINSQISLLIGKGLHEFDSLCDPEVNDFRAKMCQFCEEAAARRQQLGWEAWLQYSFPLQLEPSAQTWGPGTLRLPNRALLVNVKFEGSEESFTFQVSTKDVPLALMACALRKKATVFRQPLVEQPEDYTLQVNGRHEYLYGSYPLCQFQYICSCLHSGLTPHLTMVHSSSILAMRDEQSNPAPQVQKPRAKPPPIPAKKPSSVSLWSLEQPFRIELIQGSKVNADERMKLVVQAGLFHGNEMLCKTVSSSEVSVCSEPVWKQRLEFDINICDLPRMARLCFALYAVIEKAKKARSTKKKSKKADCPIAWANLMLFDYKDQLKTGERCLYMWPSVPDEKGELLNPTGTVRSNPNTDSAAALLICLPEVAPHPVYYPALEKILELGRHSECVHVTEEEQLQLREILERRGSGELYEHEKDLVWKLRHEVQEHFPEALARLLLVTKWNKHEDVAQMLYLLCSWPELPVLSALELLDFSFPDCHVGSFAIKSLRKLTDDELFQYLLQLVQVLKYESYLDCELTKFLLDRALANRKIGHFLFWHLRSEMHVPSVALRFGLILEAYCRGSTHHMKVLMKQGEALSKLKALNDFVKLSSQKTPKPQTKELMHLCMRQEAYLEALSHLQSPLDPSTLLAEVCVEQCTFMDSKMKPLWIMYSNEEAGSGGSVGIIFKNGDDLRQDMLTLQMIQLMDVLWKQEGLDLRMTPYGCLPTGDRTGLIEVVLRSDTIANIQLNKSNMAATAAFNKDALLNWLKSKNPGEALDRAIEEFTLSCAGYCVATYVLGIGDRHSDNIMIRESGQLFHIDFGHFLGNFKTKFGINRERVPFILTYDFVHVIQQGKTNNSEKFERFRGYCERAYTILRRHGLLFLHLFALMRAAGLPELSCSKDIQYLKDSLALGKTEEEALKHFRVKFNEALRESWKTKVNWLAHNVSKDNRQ

[32] = biological target: Receptor-type tyrosine-protein kinase FLT3 (Homo sapiens) (UniProt P36888); conditions: Compound concentration 1000.0 nM
[33] = biological target: Serine/threonine-protein kinase 3 (Homo sapiens) (UniProt Q13188); conditions: Compound concentration 1000.0 nM
[34] = biological target: Serine/threonine-protein kinase SBK1 (Homo sapiens) (UniProt Q52WX2); conditions: Compound concentration 1000.0 nM
[35] = biological target: Ribosomal protein S6 kinase alpha-2 (Homo sapiens) (UniProt Q15349); conditions: Compound concentration 1000.0 nM
[36] = biological target: Aurora kinase A (Homo sapiens) (UniProt O14965); conditions: Compound concentration 1000.0 nM
[37] = biological target: Serine/threonine-protein kinase Sgk1 (Homo sapiens) (UniProt O00141); conditions: Compound concentration 1000.0 nM
[38] = biological target: Vascular endothelial growth factor receptor 3 (Homo sapiens) (UniProt P35916); conditions: Compound concentration 1000.0 nM
[39] = biological target: Serine/threonine-protein kinase BRSK2 (Homo sapiens) (UniProt Q8IWQ3); conditions: Compound concentration 1000.0 nM
[40] = biological target: cGMP-dependent protein kinase 2 (Homo sapiens) (UniProt Q13237); conditions: Compound concentration 1000.0 nM
[41] = biological target: Myosin light chain kinase 2, skeletal/cardiac muscle (Homo sapiens) (UniProt Q9H1R3); conditions: Compound concentration 1000.0 nM
[42] = biological target: Serine/threonine-protein kinase/endoribonuclease IRE1 (Homo sapiens) (UniProt O75460); conditions: Compound concentration 1000.0 nM
[43] = biological target: STE20-like serine/threonine-protein kinase (Homo sapiens) (UniProt Q9H2G2); conditions: Compound concentration 1000.0 nM
Chain of STE20-like serine/threonine-protein kinase (Homo sapiens) (Q9H2G2 whole entry, looked up): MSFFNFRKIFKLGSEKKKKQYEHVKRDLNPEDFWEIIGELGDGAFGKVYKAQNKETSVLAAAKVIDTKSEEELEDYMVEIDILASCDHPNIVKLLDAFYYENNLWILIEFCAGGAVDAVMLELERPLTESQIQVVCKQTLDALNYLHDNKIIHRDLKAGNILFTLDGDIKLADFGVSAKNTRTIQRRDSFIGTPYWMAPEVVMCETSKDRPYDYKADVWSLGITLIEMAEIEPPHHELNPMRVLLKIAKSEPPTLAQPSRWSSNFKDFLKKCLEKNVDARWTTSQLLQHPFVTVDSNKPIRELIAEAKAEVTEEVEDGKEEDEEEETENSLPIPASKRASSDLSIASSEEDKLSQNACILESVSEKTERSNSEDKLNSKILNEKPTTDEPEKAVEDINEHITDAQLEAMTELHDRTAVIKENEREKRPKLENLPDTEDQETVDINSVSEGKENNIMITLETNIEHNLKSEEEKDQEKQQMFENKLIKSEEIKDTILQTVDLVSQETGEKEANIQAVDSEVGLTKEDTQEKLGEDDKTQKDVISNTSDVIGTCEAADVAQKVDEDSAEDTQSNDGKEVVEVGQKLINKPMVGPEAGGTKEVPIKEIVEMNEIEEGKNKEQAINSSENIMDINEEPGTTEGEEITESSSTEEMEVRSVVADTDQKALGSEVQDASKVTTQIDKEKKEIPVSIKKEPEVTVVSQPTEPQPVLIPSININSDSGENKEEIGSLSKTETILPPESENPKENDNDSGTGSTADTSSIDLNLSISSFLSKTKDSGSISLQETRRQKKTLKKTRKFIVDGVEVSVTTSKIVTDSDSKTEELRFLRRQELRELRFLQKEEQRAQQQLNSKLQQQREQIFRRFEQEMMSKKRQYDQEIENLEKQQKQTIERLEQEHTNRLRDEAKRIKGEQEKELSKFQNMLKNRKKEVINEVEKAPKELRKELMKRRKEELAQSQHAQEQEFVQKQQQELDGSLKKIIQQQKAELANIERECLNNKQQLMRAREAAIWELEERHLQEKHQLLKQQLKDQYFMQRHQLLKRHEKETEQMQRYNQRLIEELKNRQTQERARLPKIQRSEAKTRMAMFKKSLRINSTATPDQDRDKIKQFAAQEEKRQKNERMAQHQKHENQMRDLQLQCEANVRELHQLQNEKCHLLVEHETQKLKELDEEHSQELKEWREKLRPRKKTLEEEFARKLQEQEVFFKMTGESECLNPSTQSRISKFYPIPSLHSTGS

[44] = biological target: Serine/threonine-protein kinase Nek4 (Homo sapiens) (UniProt P51957); conditions: Compound concentration 1000.0 nM
[45] = tested on: ALK tyrosine kinase receptor (Homo sapiens), Q9UM73 [L1196M]; conditions: Compound concentration 1000.0 nM

CCC(=O)N[C@H]1CC[C@@H](C(=O)N(C)c2ccc(-c3nc4ccccc4o3)cc2)C1 [BI 99179]
residual activity [1]: 77%
residual activity [2]: 67%
residual activity [3]: 84%
residual activity [4]: 68%
residual activity [5]: 100%
residual activity [6]: 78%
residual activity [7]: 66%
inhibition [8]: 34.9%
residual activity [9]: 100%
residual activity [10]: 99%
residual activity [11]: 100%
inhibition [12]: 1.55%
residual activity [13]: 92%
residual activity [14]: 100%
residual activity [15]: 100%
residual activity [16]: 100%
residual activity [17]: 85%
residual activity [18]: 48%
residual activity [19]: 84%
residual activity [20]: 100%
residual activity [21]: 93%
residual activity [22]: 87%
residual activity [23]: 100%
residual activity [24]: 63%
residual activity [25]: 100%
residual activity [26]: 100%
residual activity [27]: 95%
residual activity [28]: 100%
residual activity [29]: 92%
inhibition [30]: 20.9%
residual activity [31]: 100%
residual activity [32]: 78%
residual activity [33]: 100%
residual activity [34]: 94%
residual activity [35]: 99%
residual activity [36]: 43%
residual activity [37]: 100%
residual activity [38]: 97%
residual activity [39]: 97%
residual activity [40]: 100%
residual activity [41]: 85%
residual activity [42]: 91%
residual activity [43]: 92%
residual activity [44]: 99%
residual activity [45]: 93%

CCC(=O)N[C@@H]1CC[C@H](C(=O)N(C)c2ccc(-c3nc4ccccc4o3)cc2)C1 [BI 99990]
residual activity [1]: 80%
residual activity [2]: 66%
residual activity [3]: 100%
residual activity [4]: 97%
residual activity [5]: 82%
residual activity [6]: 100%
residual activity [7]: 100%
inhibition [8]: -2.82%
residual activity [9]: 90%
residual activity [10]: 100%
residual activity [11]: 100%
inhibition [12]: 0.247%
residual activity [13]: 70%
residual activity [14]: 100%
residual activity [15]: 100%
residual activity [16]: 85%
residual activity [17]: 100%
residual activity [18]: 58%
residual activity [19]: 100%
residual activity [20]: 100%
residual activity [21]: 100%
residual activity [22]: 100%
residual activity [23]: 100%
residual activity [24]: 100%
residual activity [25]: 86%
residual activity [26]: 95%
residual activity [27]: 100%
residual activity [28]: 94%
residual activity [29]: 100%
inhibition [30]: 18.6%
residual activity [31]: 100%
residual activity [32]: 89%
residual activity [33]: 100%
residual activity [34]: 100%
residual activity [35]: 86%
residual activity [36]: 100%
residual activity [37]: 100%
residual activity [38]: 100%
residual activity [39]: 76%
residual activity [40]: 92%
residual activity [41]: 79%
residual activity [42]: 100%
residual activity [43]: 100%
residual activity [44]: 95%
residual activity [45]: 100%
